# Assay results reported in patent publication US20070249705A1, “N-(1-(2,3-Dihydro-1H-Inden-5Yl)-2-Oxo-3-Pyrrolidinyl)-Sulfonamide Derivatives for Use as Factor Xa Inhibitors” (priority 2004, published 2007).
# Target: human Factor Xa (Homo sapiens, UniProt P00742)
# Assay: In vitro fluorogenic assay for inhibition of Factor Xa
# Type: biochemical
# Conditions: Ki = IC50/1.6
# Procedure: In Vitro Assay for Inhibition of Factor Xa
# Compounds of the present invention were tested for their Factor Xa inhibitory activity as determined in vitro by their ability to inhibit human Factor Xa in a fluorogenic assay, using Rhodamine 110, bis-CBZ-glycylglycyl-L-arginine amide as the fluorogenic substrate. Compounds were diluted from a 10 mM stock solution in dimethylsulfoxide at appropriate concentrations. Assay was performed at room temperature using buffer consisting of: 50 mM Tris-HCl, 150 mM NaCl, 5 mM CaCl2, pH 7.4 containing human Factor Xa (final concentration of 0.0003 U.ml-1). Compound and enzyme were preincubated for 15 min prior to addition of the substrate (final concentration of 10 μM). The reaction was stopped after 3 hrs with the addition of H-D-Phe-Pro-Arg-Chloromethylketone. An LJL-Analyst fluorimeter was used to monitor fluorescence with 485 nm excitation/535 nm emission. To obtain IC50 values the data were analysed using ActivityBase® and XLfit®.
# Calculation of Ki values:
# Ki=IC50/(1+[Substrate]/Km)
# The Ki value for the above assay can be obtained by dividing the IC50 value by 1.6.
# Chain of human Factor Xa (P00742 235-488 limits assumed): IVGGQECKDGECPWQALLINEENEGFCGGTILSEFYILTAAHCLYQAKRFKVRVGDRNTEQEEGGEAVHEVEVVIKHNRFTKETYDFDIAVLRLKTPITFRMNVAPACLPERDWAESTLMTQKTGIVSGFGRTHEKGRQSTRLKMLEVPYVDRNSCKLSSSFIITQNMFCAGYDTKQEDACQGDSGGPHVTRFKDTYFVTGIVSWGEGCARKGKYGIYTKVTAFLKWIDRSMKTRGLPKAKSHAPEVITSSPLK
# Chain of human Factor Xa (P00742 41-179 partner limits assumed): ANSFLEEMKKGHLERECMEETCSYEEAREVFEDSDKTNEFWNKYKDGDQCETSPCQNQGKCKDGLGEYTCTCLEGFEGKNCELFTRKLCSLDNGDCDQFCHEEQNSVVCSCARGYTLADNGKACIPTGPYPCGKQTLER
row,SMILES,Ki
1,"CNC1CCc2cc(N3CC[C@H](N(C)S(=O)(=O)c4ccc5cc(Cl)ccc5c4)C3=O)ccc21 (stereo partly drawn) [Example 12, 6-Chloro-N-methyl-N-{(3S)-1-[1-(methylamino)-2,3-dihydro-1H-inden-5-yl]-2-oxo-3-pyrrolidinyl}-2-naphthalenesulfonamide]",< 50 nM
2,"CN(C)C1CCc2cc(N3CCC(NS(=O)(=O)c4cc5ccc(Cl)cc5s4)C3=O)ccc21 (centres unmarked) [Example 3, 6-Chloro-N-{1-[1-(dimethylamino)-2,3-dihydro-1H-inden-5-yl]-2-oxo-3-pyrrolidinyl}-1-benzothiophene-2-sulfonamide]",< 50 nM
